Assay results as given in patent US20200239587A1, “SENSITIZATION OF TUMORS TO THERAPIES THROUGH ENDOGLIN ANTAGONISM” (Cedars-Sinai Medical Center, priority 2016, published 2020).

Legend:
Assay type in all cases: cell-based, human
PC3 cells = test: MTT proliferation assay; details: enzalutamide in the presence of TRC105
Description: (§1) CW22Rv1, C42B, and PC3 cells from ATCC were expanded as directed. Prostatectomy specimens from Cedars-Sinai Medical Center or the Greater Los Angeles Veterans Affairs were cultured to generate NAF and CAF cells using the same method, as C57BL/6 mouse wild-type prostatic fibroblasts were grown as previously reported (Franco et al., 2011, Cancer research 71, 1272-1281; Kiskowski et al., 2011, Cancer research 68, 4709-4718). TRC105 and M1043 were provided by TRACON Pharmaceuticals, Inc. (San Diego, Calif.). Enzalutamide (Xtandi) was purchased from Medivation (San Francisco, Calif.).
(§2) 3000 cells per 96-well were treated for 72 hours using 5 wells per treatment. MTT reagent (M6494, Life Technologies) was prepared as directed, incubated for one hour at 37° C., and analyzed using manufacturer's recommendations.

Rv1 = test: MTT proliferation assay; details: TRC105 plus enzalutamide
Description: as §1, §2

C42B = test: MTT proliferation assay; details: TRC105 plus enzalutamide
Description: as §1, §2

22Rv1 cells [1] = test: COMET assay; details: irradiated
Description: 22Rv1 were pre-treated with 1 μg/ml TRC105 24 hours prior to irradiation with 4 Gy. FIG. 22A) γ-H2AX or p53 bp were imunolocalized at 4, 24, and 48 hours post radiation. Foci per nuclei were quantified (n=100). FIG. 22B) Comet assay was performed 30 minutes and 24 hours following irradiation. The tail moment was quantified (n=50). FIG. 22C) Cell cycle analysis was performed on 22Rv1 at 0, 4, 8, and 24 hours post radiation in the presence of IgG or TRC105 (n=3) in 3 independent experiments. (***p<0.001, ****p<0.0001).

[2] = system: BMP dependent CD105 signaling in 22Rv1; test: BMP-stimulated phosphorylated-SMAD1/5 and ID1 expression; details: stimulated with 50 ng/mL BMP
Description: FIG. 18A) Cell surface CD105 expression was measured in PC3, C42b, and 22Rv1 72 hours after 4 Gy irradiation treatment by FACS analysis and compared to cells not irradiated (control). FIG. 18B) Cell surface CD105 expression was measured in cell lines following a dose range of irradiation (0, 2, 4, or 6 Gy). FIG. 18C) The durability of cell surface CD105 expression in 22Rv1 was determined 0, 0.5, 4, 8, 24, 48, 72, 120, and 168 hours following 4 Gy irradiation. CD105 cell surface expression fold change was normalized to levels expressed prior to irradiation. FIG. 18D) Western blot for phosphorylated-Smad1/5 was measured in CW22Rv1 cells in the presence or absence of serum starvation and treatment with 50 ng/ml BMP4 or 1 μg/ml TRC105. β-actin expression served as the loading control. FIG. 18E) Annexin-V expression was measured in 22Rv1 cells by FACS analysis 5 days following 4 Gy irradiation in the presence and absence of TRC105. FIG. 18F) Clonogenic assay was measured 10 days following irradiation of CW22Rv1 and C42b cells in a dose range of 0 to 6 Gy in the presence of 1 μg/ml IgG or TRC105. […]
Total RNA was extracted using the RNeasy kit (Qiagen). […] Quantitative RT-PCR was performed with 5 replicates using the Step One Real-Time PCR system (Applied Biosystems). […] For RNA-sequencing, Ion Proton AmpliSeq Transcriptome RNA Sequencing was performed achieving an average of 3M reads. […]

[3] = system: CW22Rv1 cells in 3D co-culture with mouse prostatic fibroblasts; test: 3D co-culture epithelial proliferation, EpCam and Ki-67 FACS
Description: A modified version of the 3D organotypic co-culture system was performed in a collagen matrix similar to that previously reported (Stark et al., 1999, J Invest Dermatol 112, 681-691). Collagen matrix gels were prepared by mixing five volumes of rat tail collagen I with two volumes of matrigel (NCI), one volume of 10× DMEM medium (GE Healthcare Life Sciences), and one volume of FBS (Atlanta Biologicals), Rv1 and primary mouse prostatic fibroblasts were combined in a 1:3 ratio. Nylon squares were coated with collagen and placed on metal grids in a 6-well plate. Gel plugs (150 μl) were transferred onto the nylon squares and media was added to the level of the nylon mesh. After 72 hours, the cells were dissociated from the matrix with collagenase and dispersed for FACS analysis.
FACS experiments were performed with eBiosciences antibodies: anti-human Stro-1-FITC (340105), anti-human CD90-PE (12-0909-42), anti-human CD105-APC (17-1057-41), anti-mouse CD105-APC (17-1051-82), anti-human CD117-PE-Cy7 (15-1178-41), anti-human Ki67-PECy7 (25-5699-41), and anti-human EpCAM-PE (12-9326-41). All events were acquired on a BD LSRII flow cytometer in the Cedars-Sinai Medical Center FACS core installed with BD FACSDiva software. Files were analyzed using FlowJo software v10.2. EpCAM positive cells were used to identify the CW22Rv1 epithelia in three-dimensional (3D) co-cultures and further gated for CD105 or Ki67 positive cells.
as §1

22Rv1 cells [4] = test: Annexin-V apoptosis by FACS after irradiation; details: TRC105 with 4 Gy radiation vs radiation alone, 5 days
Description: FIG. 18A) Cell surface CD105 expression was measured in PC3, C42b, and 22Rv1 72 hours after 4 Gy irradiation treatment by FACS analysis and compared to cells not irradiated (control). FIG. 18B) Cell surface CD105 expression was measured in cell lines following a dose range of irradiation (0, 2, 4, or 6 Gy). FIG. 18C) The durability of cell surface CD105 expression in 22Rv1 was determined 0, 0.5, 4, 8, 24, 48, 72, 120, and 168 hours following 4 Gy irradiation. CD105 cell surface expression fold change was normalized to levels expressed prior to irradiation. FIG. 18D) Western blot for phosphorylated-Smad1/5 was measured in CW22Rv1 cells in the presence or absence of serum starvation and treatment with 50 ng/ml BMP4 or 1 μg/ml TRC105. β-actin expression served as the loading control. FIG. 18E) Annexin-V expression was measured in 22Rv1 cells by FACS analysis 5 days following 4 Gy irradiation in the presence and absence of TRC105. FIG. 18F) Clonogenic assay was measured 10 days following irradiation of CW22Rv1 and C42b cells in a dose range of 0 to 6 Gy in the presence of 1 μg/ml IgG or TRC105. Data are reported as a mean+/−S.D. (**p<0.01, ***p<0.001).

Substance: TRC105: partially humanized monoclonal antibody that blocks BMP signaling; human-specific CD105 (endoglin) neutralizing antibody from Tracon Pharmaceuticals
- viability (MTT) (PC3 cells): insensitive
- cell proliferation (MTT), addition of TRC105 to enzalutamide (Rv1): no additional impact
- cell proliferation (MTT), addition of TRC105 to enzalutamide (C42B): no additional impact
- tail moment (22Rv1 cells [1]; 30 minutes post radiation, p<0.001): significant increase in tail moment
- tail moment (22Rv1 cells [1]; after 24 hours): no significant difference
- minimum dose that effectively blocked phosphorylated-SMAD1/5 activation and expression of ID1 [2]: 1 µg/mL
- epithelial proliferation, antibody alone ([3]; compared to IgG control, 1 μg/mL, 72 hours): did not change epithelial proliferation
- enzalutamide-induced epithelial proliferation, single antibody ([3]; enzalutamide plus M1043 or TRC105): did not alter enzalutamide-induced epithelial proliferation
- epithelial proliferation, enzalutamide with both M1043 and TRC105 ([3]; triple combination): restored epithelial proliferation to that of control
- apoptosis measured by Annexin-V (22Rv1 cells [4]): significantly increased apoptosis
